In ChEMBL document CHEMBL1201862, “PubChem BioAssay data set” (2004):
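Five concentrations, 48 hours, 96-well plates. GI50 is the concentration that inhibits growth by half.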 Calls of active or inactive are those of the source. Cut-off read from the data, not from the text of the source: active = GI50 up to about 1.1 µM and inactive = higher.

Legend:
Assay in all cases: DTP human tumour cell line panel, 48 h
[1] = tested on: ACHN
[2] = tested on: BT-549
[3] = tested on: CAKI-1
[4] = tested on: CCRF-CEM
[5] = tested on: COLO 205
[6] = tested on: DU-145
[7] = tested on: IGROV-1
[8] = tested on: KM12
[9] = tested on: MCF7
[10] = tested on: MOLT-4
[11] = tested on: Malme-3M
[12] = tested on: NCI/ADR-RES
[13] = tested on: OVCAR-4
[14] = tested on: OVCAR-5
[15] = tested on: SF-268
[16] = tested on: SF-295
[17] = tested on: SK-MEL-2
[18] = tested on: SW-620
[19] = tested on: U-251
[20] = tested on: UACC-257

Measured: GI50

O=CN1CCN(C(=O)c2ccc(Cl)c(Cl)c2)C1=S
inactive: [1] 17.3 µM | [2] 18 µM | [3] 14.9 µM | [4] 7.13 µM | [5] 20 µM | [6] 15.7 µM | [7] 15.1 µM | [8] 15.7 µM | [9] 4.63 µM | [10] 22.8 µM | [11] 20.5 µM | [12] 32.9 µM | [13] 18.2 µM | [14] 16.9 µM | [15] 22.2 µM | [16] 17.9 µM | [17] 15.3 µM | [18] 19.4 µM | [19] 12.5 µM | [20] 17.7 µM

O=C(NC(=S)Nc1ccc(Br)cc1)c1ccc2c(c1)Sc1ccccc1S2
inactive: [1] 18.2 µM | [2] 39.1 µM | [3] 20.1 µM | [4] 16.5 µM | [5] 41.8 µM | [6] 17.3 µM | [7] 16.1 µM | [8] 23.8 µM | [9] 32.7 µM | [10] 7.53 µM | [11] 24.4 µM | [12] 24.2 µM | [13] 19.2 µM | [14] 20.6 µM | [15] 21.9 µM | [16] 20.4 µM | [17] 24.5 µM | [18] 31.6 µM | [19] 19 µM | [20] 21.7 µM

O=C1Nc2ccccc2/C1=N/N=C1NCCCCN1
inactive: [1] > 100 µM | [2] > 100 µM | [3] > 100 µM | [4] > 100 µM | [5] > 100 µM | [6] > 100 µM | [7] > 100 µM | [8] > 100 µM | [9] > 100 µM | [10] > 100 µM | [11] > 100 µM | [12] > 100 µM | [13] > 100 µM | [14] > 100 µM | [15] > 100 µM | [16] > 100 µM | [17] > 100 µM | [18] > 100 µM | [19] > 100 µM | [20] > 100 µM

CC(=O)N(CC(=O)C(=O)NNc1ccoc1)c1ccc(Cl)cc1
inactive: [1] 37.8 µM | [2] > 100 µM | [3] > 100 µM | [4] 31.9 µM | [5] > 100 µM | [6] 87.3 µM | [7] > 100 µM | [8] > 100 µM | [9] 50.5 µM | [10] > 100 µM | [11] > 100 µM | [12] > 100 µM | [13] > 100 µM | [14] > 100 µM | [15] > 100 µM | [16] > 100 µM | [17] > 100 µM | [18] > 100 µM | [19] > 100 µM | [20] > 100 µM

CCCC(=O)OC[n+]1cccc(-c2c(COC(=O)NC(C)C)c(COC(=O)NC(C)C)c3n2CCC3)c1
inactive: [1] 30.7 µM | [2] > 79.6 µM | [3] 8.51 µM | [4] 9.98 µM | [5] 73.3 µM | [6] 43.2 µM | [7] > 46.3 µM | [8] > 100 µM | [9] 40 µM | [10] 13.6 µM | [11] 66.5 µM | [12] 61.8 µM | [13] 58.6 µM | [14] 97.7 µM | [15] 32 µM | [16] 71.9 µM | [17] > 82.6 µM | [18] 48.2 µM | [19] > 60.7 µM | [20] > 100 µM

O=c1cccc2n1CC1CNC[C@H]2C1 [CYTISINICLINE]
inactive: [1] > 100 µM | [2] > 100 µM | [3] > 100 µM | [4] > 100 µM | [5] > 100 µM | [6] > 100 µM | [7] > 100 µM | [8] > 100 µM | [9] > 100 µM | [10] > 100 µM | [11] > 100 µM | [12] > 100 µM | [13] > 100 µM | [14] > 100 µM | [15] > 100 µM | [16] > 100 µM | [17] > 100 µM | [18] > 100 µM | [19] > 100 µM | [20] > 100 µM

O=C1c2cc3c(cc2NC(c2ccccc2F)C1O)OCO3 (stereo not given)
inactive: [1] 31.9 µM | [2] 57.1 µM | [3] 25.6 µM | [4] 14 µM | [5] 5.3 µM | [6] 35 µM | [7] 13.5 µM | [8] 6.65 µM | [9] 5.27 µM | [10] 19.5 µM | [11] 9.86 µM | [12] 10.5 µM | [13] 35.8 µM | [14] 22.1 µM | [15] 19.4 µM | [16] 12.1 µM | [17] 24.3 µM | [18] 5.19 µM | [19] 14.9 µM | [20] 22.9 µM

Cc1nn(-c2ccccc2)c(C)c1/C=N/NC(=O)c1sc(=S)n(-c2ccc(Cl)cc2)c1N
inactive: [1] 4.18 µM | [2] 21.2 µM | [3] 2.76 µM | [4] 6.01 µM | [5] 4.69 µM | [6] > 100 µM | [7] 1.49 µM | [8] 8.3 µM | [9] 18 µM | [10] 8.2 µM | [11] 17.5 µM | [12] 6.21 µM | [13] 3.94 µM | [14] 6.44 µM | [15] 9.57 µM | [16] 2.71 µM | [17] 17.3 µM | [18] > 100 µM | [19] 6 µM | [20] 14.4 µM

Nc1ccc(S(=O)(=O)c2ccc(/N=[N+](\[O-])c3ccc(S(=O)(=O)c4ccc(N)cc4)cc3)cc2)cc1
inactive: [1] > 60.5 µM | [2] 27.2 µM | [3] 86.9 µM | [4] > 100 µM | [5] > 100 µM | [6] 81.7 µM | [7] > 92.9 µM | [8] > 100 µM | [9] > 64.6 µM | [10] > 100 µM | [11] > 56.4 µM | [12] > 74.3 µM | [13] 19.4 µM | [14] > 100 µM | [15] 15 µM | [16] 22.1 µM | [17] > 49.1 µM | [18] > 100 µM | [19] 27.7 µM | [20] > 91.8 µM

NC(Cc1ccc(S(=O)(=O)O)cc1)C(=O)NC(Cc1ccc(S(=O)(=O)O)cc1)C(=O)NC(Cc1ccc(S(=O)(=O)O)cc1)C(=O)O (stereo not given)
inactive: [1] > 100 µM | [2] > 100 µM | [3] > 100 µM | [4] > 100 µM | [5] > 100 µM | [6] > 100 µM | [7] > 100 µM | [8] > 100 µM | [9] > 100 µM | [10] > 100 µM | [11] > 100 µM | [12] > 100 µM | [13] > 100 µM | [14] > 100 µM | [15] > 100 µM | [16] > 100 µM | [17] > 100 µM | [18] > 100 µM | [19] > 100 µM | [20] > 100 µM
